Experimental data from patent US8735414B2 (priority 2009, dated 2014).

Columns and labels:
[1] = system: bicistronic HCV replicon (replicon RNA, GenBank Accession No. AJ242654); assay: HCV Replicon Assay; type: cell-based; conditions: Hepatitis C virus, 72 h, read-out: Replicon IC50

Row | SMILES | melting point | IC50 [1]
1 | COc1ccc2c(C#N)c(-c3ncc(S(=O)(=O)N[C@H](C)C(F)(F)F)cn3)n(C3CCC3)c2c1 [compound 183, 2-(3-cyano-1-cyclobutyl-6-methoxy-1H-indol-2-yl)-N-[(2R)-1,1,1-trifluoropropan-2-yl]pyrimidine-5-sulfonamide] | 147 to 149 °C | 500 to 2000 nM
2 | C[C@@H](NS(=O)(=O)c1cnc(-c2c(C#N)c3ccc(OC(F)F)cc3n2C2CCC2)nc1)C(F)(F)F [compound 184, 2-[3-cyano-1-cyclobutyl-6-(difluoromethoxy)-1H-indol-2-yl]-N-[(2R)-1,1,1-trifluoropropan-2-yl]pyrimidine-5-sulfonamide] | 112 to 114 °C | < 500 nM
3 | CC(C)NS(=O)(=O)c1cnc(-c2c(C#N)c3ccc(C(C)C)cc3n2C2CCC2)nc1 [compound 185, 2-[3-cyano-1-cyclobutyl-6-(propan-2-yl)-1H-indol-2-yl]-N-(propan-2-yl)pyrimidine-5-sulfonamide] | 220 to 222 °C | < 500 nM
4 | CC(C)c1ccc2c(C#N)c(-c3ncc(S(=O)(=O)NC(CF)CF)cn3)n(C3CCC3)c2c1 [compound 186, 2-[3-cyano-1-cyclobutyl-6-(propan-2-yl)-1H-indol-2-yl]-N-(1,3-difluoropropan-2-yl)pyrimidine-5-sulfonamide] | 214 to 222 °C | < 500 nM
5 | Cc1ccc2c(C#N)c(-c3ccc(S(=O)(=O)NC4(C(F)(F)F)CC4)cn3)n(C3CCCC3)c2c1 [compound 190, 6-(3-cyano-1-cyclopentyl-6-methyl-1H-indol-2-yl)-N-[1-(trifluoromethyl)cyclopropyl]pyridine-3-sulfonamide] | 199 to 210 °C | < 500 nM
6 | C[C@@H](NS(=O)(=O)c1ccc(-c2c(C#N)c3ccc(OC(F)(F)F)cc3n2C2CCC2)nc1)C(F)(F)F [compound 191, 6-[3-cyano-1-cyclobutyl-6-(trifluoromethoxy)-1H-indol-2-yl]-N-[(2R)-1,1,1-trifluoropropan-2-yl]pyridine-3-sulfonamide] | 171 to 177 °C | 500 to 2000 nM
7 | Cc1ccc2c(C#N)c(-c3ccc(S(=O)(=O)N[C@H](C)C(F)(F)F)cn3)n(C3CCC3)c2c1 [compound 192, 6-(3-cyano-1-cyclobutyl-6-methyl-1H-indol-2-yl)-N-[(2R)-1,1,1-trifluoropropan-2-yl]pyridine-3-sulfonamide] | 204 to 208 °C | < 500 nM
8 | N#Cc1c(-c2ncc(S(=O)(=O)NC(CF)CF)cn2)n(C2CCCCC2)c2cc(C3CC3)ccc12 [compound 193, 2-(3-cyano-1-cyclohexyl-6-cyclopropyl-1H-indol-2-yl)-N-(1,3-difluoropropan-2-yl)pyrimidine-5-sulfonamide] | > 200 °C (dec.) | < 500 nM
9 | CC(C)n1c(-c2ccc(S(=O)(=O)N[C@H](C)C(F)(F)F)cn2)c(C#N)c2ccc(OC(F)F)cc21 [compound 194, 6-[3-cyano-6-(difluoromethoxy)-1-(propan-2-yl)-1H-indol-2-yl]-N-[(2R)-1,1,1-trifluoropropan-2-yl]pyridine-3-sulfonamide] | 166 to 168 °C | < 500 nM
10 | C[C@@H](NS(=O)(=O)c1ccc(-c2c(C#N)c3ccc(OC(F)F)cc3n2C2CCCCC2)nc1)C(F)(F)F [compound 195, 6-[3-cyano-1-cyclohexyl-6-(difluoromethoxy)-1H-indol-2-yl]-N-[(2R)-1,1,1-trifluoropropan-2-yl]pyridine-3-sulfonamide] | 170 to 172 °C | < 500 nM
11 | Cc1ccc2c(C#N)c(-c3ccc(S(=O)(=O)N[C@H](C)C(F)(F)F)cn3)n(CC3CC3)c2c1 [compound 197, 6-[3-cyano-1-(cyclopropylmethyl)-6-methyl-1H-indol-2-yl]-N-[(2R)-1,1,1-trifluoropropan-2-yl]pyridine-3-sulfonamide] | 165 to 169 °C | < 500 nM
12 | Cc1ccc2c(c1)c(C#N)c(-c1ncc(S(=O)(=O)NC(CF)CF)cn1)n2C1CCCCC1 [compound 198, 2-(3-cyano-1-cyclohexyl-5-methyl-1H-indol-2-yl)-N-(1,3-difluoropropan-2-yl)pyrimidine-5-sulfonamide] | 211 to 215 °C | 500 to 2000 nM
13 | Cc1ccc2c(c1)c(C#N)c(-c1ccc(S(=O)(=O)NC(CF)CF)cn1)n2C1CCCCC1 [compound 199, 6-(3-cyano-1-cyclohexyl-5-methyl-1H-indol-2-yl)-N-(1,3-difluoropropan-2-yl)pyridine-3-sulfonamide] | 210 to 215 °C | < 500 nM
14 | Cc1ccc2c(c1)c(C#N)c(-c1ncc(S(=O)(=O)NC(C)C)cn1)n2C1CCCCC1 [compound 200, 2-(3-cyano-1-cyclohexyl-5-methyl-1H-indol-2-yl)-N-(propan-2-yl)pyrimidine-5-sulfonamide] | 183 to 188 °C | 500 to 2000 nM
15 | Cc1ccc2c(c1)c(C#N)c(-c1ccc(S(=O)(=O)N[C@@H](C)C3CC3)cn1)n2C1CCC1 [compound 201, 6-(3-cyano-1-cyclobutyl-5-methyl-1H-indol-2-yl)-N-[(1S)-1-cyclopropylethyl]pyridine-3-sulfonamide] | 173 to 178 °C | < 500 nM
16 | Cc1ccc2c(C#N)c(-c3ncc(S(=O)(=O)N[C@@H](C)C4CC4)cn3)n(CC3CC3)c2c1 [compound 203, 2-[3-cyano-1-(cyclopropylmethyl)-6-methyl-1H-indol-2-yl]-N-[(1S)-1-cyclopropylethyl]pyrimidine-5-sulfonamide] | 205 to 207 °C | < 500 nM
17 | Cc1ccc2c(C#N)c(-c3ncc(S(=O)(=O)N[C@@H](C)C4CC4)cn3)n(C3CCCC3)c2c1 [compound 204, 2-(3-cyano-1-cyclopentyl-6-methyl-1H-indol-2-yl)-N-[(1S)-1-cyclopropylethyl]pyrimidine-5-sulfonamide] | 180 to 182 °C | < 500 nM
18 | COc1ccc2c(C#N)c(-c3ncc(S(=O)(=O)N[C@@H](C)C4CC4)cn3)n(C3CCC3)c2c1 [compound 205, 2-(3-cyano-1-cyclobutyl-6-methoxy-1H-indol-2-yl)-N-[(1S)-1-cyclopropylethyl]pyrimidine-5-sulfonamide] | 204 to 206 °C | < 500 nM
19 | COc1ccc2c(C#N)c(-c3ncc(S(=O)(=O)N[C@@H](C)C4CC4)cn3)n(C3CCCC3)c2c1 [compound 206, 2-(3-cyano-1-cyclopentyl-6-methoxy-1H-indol-2-yl)-N-[(1S)-1-cyclopropylethyl]pyrimidine-5-sulfonamide] | 192 to 194 °C | 500 to 2000 nM
20 | CC(C)n1c(-c2ncc(S(=O)(=O)N[C@@H](C)C3CC3)cn2)c(C#N)c2ccc(OC(F)F)cc21 [compound 207, 2-[3-cyano-6-(difluoromethoxy)-1-(propan-2-yl)-1H-indol-2-yl]-N-[(1S)-1-cyclopropylethyl]pyrimidine-5-sulfonamide] | 169 to 170 °C | 500 to 2000 nM
21 | CCCn1c(-c2ncc(S(=O)(=O)N[C@@H](C)C3CC3)cn2)c(C#N)c2ccc(OC(F)F)cc21 [compound 208, 2-[3-cyano-6-(difluoromethoxy)-1-propyl-1H-indol-2-yl]-N-[(1S)-1-cyclopropylethyl]pyrimidine-5-sulfonamide] | 152 to 154 °C | < 500 nM
22 | C[C@H](NS(=O)(=O)c1cnc(-c2c(C#N)c3ccc(OC(F)F)cc3n2C2CCCC2)nc1)C1CC1 [compound 209, 2-[3-cyano-1-cyclopentyl-6-(difluoromethoxy)-1H-indol-2-yl]-N-[(1S)-1-cyclopropylethyl]pyrimidine-5-sulfonamide] | 183 to 185 °C | < 500 nM
23 | Cc1ccc2c(C#N)c(-c3ccc(S(=O)(=O)N[C@H](C)C(F)(F)F)cn3)n(C(C)C)c2c1 [compound 210, 6-[3-cyano-6-methyl-1-(propan-2-yl)-1H-indol-2-yl]-N-[(2R)-1,1,1-trifluoropropan-2-yl]pyridine-3-sulfonamide] | 211 to 216 °C | < 500 nM
24 | C[C@@H](NS(=O)(=O)c1ccc(-c2c(C#N)c3ccc(C4CC4)cc3n2C2CCCC2)nc1)C(F)(F)F [compound 211, 6-(3-cyano-1-cyclopentyl-6-cyclopropyl-1H-indol-2-yl)-N-[(2R)-1,1,1-trifluoropropan-2-yl]pyridine-3-sulfonamide] | 178 to 181 °C | < 500 nM
25 | Cc1ccc2c(C#N)c(-c3ccc(S(=O)(=O)N[C@H](C)C(F)(F)F)cn3)n(C3CCCCC3)c2c1 [compound 213, 6-(3-cyano-1-cyclohexyl-6-methyl-1H-indol-2-yl)-N-[(2R)-1,1,1-trifluoropropan-2-yl]pyridine-3-sulfonamide] | 208 to 212 °C | < 500 nM
26 | Cc1ccc2c(C#N)c(-c3ccc(S(=O)(=O)N[C@H](C)C(F)(F)F)cn3)n(C3CCCC3)c2c1 [compound 214, 6-(3-cyano-1-cyclopentyl-6-methyl-1H-indol-2-yl)-N-[(2R)-1,1,1-trifluoropropan-2-yl]pyridine-3-sulfonamide] | 176 to 182 °C | < 500 nM
27 | C[C@@H](NS(=O)(=O)c1ccc(-c2c(C#N)c3ccc(F)cc3n2C2CCC2)nc1)C(F)(F)F [compound 215, 6-(3-cyano-1-cyclobutyl-6-fluoro-1H-indol-2-yl)-N-[(2R)-1,1,1-trifluoropropan-2-yl]pyridine-3-sulfonamide] | 178 to 180 °C | 500 to 2000 nM
28 | C[C@@H](NS(=O)(=O)c1ccc(-c2c(C#N)c3ccc(F)cc3n2CC2CC2)nc1)C(F)(F)F [compound 216, 6-[3-cyano-1-(cyclopropylmethyl)-6-fluoro-1H-indol-2-yl]-N-[(2R)-1,1,1-trifluoropropan-2-yl]pyridine-3-sulfonamide] | 173 to 175 °C | 500 to 2000 nM
29 | CCCn1c(-c2ccc(S(=O)(=O)N[C@H](C)C(F)(F)F)cn2)c(C#N)c2ccc(F)cc21 [compound 217, 6-(3-cyano-6-fluoro-1-propyl-1H-indol-2-yl)-N-[(2R)-1,1,1-trifluoropropan-2-yl]pyridine-3-sulfonamide] | 195 to 197 °C | 2000 to 5000 nM
